Laboratory results reported in ChEMBL document CHEMBL1201862, “PubChem BioAssay data set” (2004).
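96-well plates; 48 h exposure; 5 concentrations. Endpoints by linear interpolation between flanking doses. Not reached: highest tested concentration assigned. At the GI50, growth is halved.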 The source made the active and inactive calls. Rule as the data show it: active = GI50 up to about 1.1 µM and inactive = higher.

What was measured:
Experiment in all cases: growth of human tumour cells (NCI), 48 h
[1] = tested on: OVCAR-3
[2] = tested on: NCI-H460
[3] = tested on: KM12
[4] = tested on: TK-10
[5] = tested on: UO-31
[6] = tested on: K562
[7] = tested on: SNB-75
[8] = tested on: RPMI-8226
[9] = tested on: SK-MEL-5
[10] = tested on: Malme-3M
[11] = tested on: MDA-MB-231
[12] = tested on: A549
[13] = tested on: RXF 393
[14] = tested on: SF-295
[15] = tested on: HCC 2998
[16] = tested on: HOP-92
[17] = tested on: A498
[18] = tested on: NCI-H522
[19] = tested on: SK-MEL-2
[20] = tested on: DLD-1

| SMILES | GI50 [1] | GI50 [2] | GI50 [3] | GI50 [4] | GI50 [5] | GI50 [6] | GI50 [7] | GI50 [8] | GI50 [9] | GI50 [10] | GI50 [11] | GI50 [12] | GI50 [13] | GI50 [14] | GI50 [15] | GI50 [16] | GI50 [17] | GI50 [18] | GI50 [19] | GI50 [20] |
| --- | --- | --- | --- | --- | --- | --- | --- | --- | --- | --- | --- | --- | --- | --- | --- | --- | --- | --- | --- | --- |
| COc1ccc(-c2c3c(nc4nc(SCCc5ccccc5)nc(N)c24)CCCC3)cc1OC | > 100 µM (inactive) | > 100 µM (inactive) | > 100 µM (inactive) | > 100 µM (inactive) | > 100 µM (inactive) | > 100 µM (inactive) | 20.5 µM (inactive) | > 100 µM (inactive) | > 100 µM (inactive) | > 100 µM (inactive) | > 100 µM (inactive) | > 100 µM (inactive) | 24.9 µM (inactive) | 22.7 µM (inactive) |  |  |  |  |  |  |
| O=C(N/N=C/c1ccccc1)c1c(F)c(F)c(F)c(F)c1F | > 100 µM (inactive) | > 100 µM (inactive) | 86.1 µM (inactive) | > 100 µM (inactive) | > 100 µM (inactive) | > 100 µM (inactive) | > 100 µM (inactive) | > 100 µM (inactive) | > 100 µM (inactive) | > 100 µM (inactive) | > 100 µM (inactive) | > 100 µM (inactive) | > 100 µM (inactive) | > 100 µM (inactive) | > 100 µM (inactive) | 79.6 µM (inactive) | > 100 µM (inactive) | 23.3 µM (inactive) | > 100 µM (inactive) |  |
| C[C@H](O)C(=O)SC[C@H](NC(=O)CC[C@@H](N)C(=O)O)C(=O)NCC(=O)O | > 100 µM (inactive) | > 100 µM (inactive) | > 100 µM (inactive) | > 100 µM (inactive) | > 100 µM (inactive) | > 100 µM (inactive) | 14.5 µM (inactive) | > 100 µM (inactive) | > 100 µM (inactive) | > 100 µM (inactive) |  |  | > 100 µM (inactive) | > 100 µM (inactive) | > 100 µM (inactive) | > 100 µM (inactive) |  | > 100 µM (inactive) | > 100 µM (inactive) | > 100 µM (inactive) |
| N#CCc1c(F)c(F)c(F)c(F)c1F |  |  | > 100 µM (inactive) | > 100 µM (inactive) | > 100 µM (inactive) | > 100 µM (inactive) |  | > 100 µM (inactive) | 54.6 µM (inactive) | > 100 µM (inactive) | > 100 µM (inactive) | > 100 µM (inactive) | > 100 µM (inactive) | > 100 µM (inactive) | > 100 µM (inactive) |  | > 100 µM (inactive) | > 100 µM (inactive) |  |  |
| CC1CC/C(=C\c2ccc(Cl)cc2)C(=O)/C1=C\c1ccc(Cl)cc1 (centres undefined) |  |  | 18.7 µM (inactive) | 29.1 µM (inactive) | 36.4 µM (inactive) | 41 µM (inactive) | 49.2 µM (inactive) |  | 20.4 µM (inactive) |  | 28.4 µM (inactive) | 35.3 µM (inactive) | 33.9 µM (inactive) |  |  | > 100 µM (inactive) | 1.63 µM (inactive) |  | 20.4 µM (inactive) |  |
| COc1ccc(/N=C(\C)c2ccncc2)cc1 | > 100 µM (inactive) | > 100 µM (inactive) | > 100 µM (inactive) | > 100 µM (inactive) | 24.2 µM (inactive) | > 100 µM (inactive) | > 100 µM (inactive) | 16.7 µM (inactive) | 94.8 µM (inactive) | > 100 µM (inactive) | > 100 µM (inactive) | 47.2 µM (inactive) | > 100 µM (inactive) | > 100 µM (inactive) | > 100 µM (inactive) | > 100 µM (inactive) | 40.9 µM (inactive) | > 100 µM (inactive) | > 100 µM (inactive) |  |
| O=C1C[C@H](Sc2ccccc2)C2(OCCO2)[C@@H](Sc2ccccc2)C1 | 2.16 µM (inactive) | 5.19 µM (inactive) | 1.79 µM (inactive) | 1.95 µM (inactive) | 1.23 µM (inactive) | 0.351 µM (active) | 11.9 µM (inactive) | 0.743 µM (active) | 1.64 µM (inactive) | 1.81 µM (inactive) | 1.64 µM (inactive) | 1.87 µM (inactive) | 1 µM (active) | 4.33 µM (inactive) | 2.58 µM (inactive) | 1.9 µM (inactive) | 15.1 µM (inactive) | 0.316 µM (active) | 10.2 µM (inactive) |  |
| Cc1ccc(S(=O)(=O)N2c3ccccc3[C@H]3CCc4c([nH]c5ccccc45)[C@H]32)cc1 | > 100 µM (inactive) | > 100 µM (inactive) | 17.9 µM (inactive) | > 100 µM (inactive) | > 100 µM (inactive) | 23.4 µM (inactive) | > 100 µM (inactive) | 29.2 µM (inactive) | 32 µM (inactive) |  | 0.65 µM (active) | > 100 µM (inactive) | > 100 µM (inactive) | > 100 µM (inactive) | > 100 µM (inactive) | > 100 µM (inactive) |  |  | > 100 µM (inactive) |  |
| COC(=O)C(=O)Cc1nc2ccccc2o1 | > 100 µM (inactive) | > 100 µM (inactive) | > 100 µM (inactive) | > 100 µM (inactive) | > 100 µM (inactive) | > 100 µM (inactive) | > 100 µM (inactive) |  |  | > 100 µM (inactive) |  |  | > 100 µM (inactive) |  | > 100 µM (inactive) |  | > 100 µM (inactive) | > 100 µM (inactive) | > 100 µM (inactive) | > 100 µM (inactive) |
